≈ marks a conversion by molar mass, not a printed value. Non-standard residues stand in square brackets, D forms with d. Residues, ends and D or L forms follow the SMILES beside them. Gly(Nα-4-Cl-benzyl) = O=C(O)CNCc1ccc(Cl)cc1; N(4-Br-benzyl)Gly = O=C(O)CNCc1ccc(Br)cc1; N(4-F-Bzl)Gly = O=C(O)CNCc1ccc(F)cc1; Nphe = O=C(O)CNCc1ccccc1; Nlys = NCCCCNCC(=O)O

Here are results for four compounds from PMC7481290, “Halogenation as a tool to tune antimicrobial activity of peptoids” (Scientific Reports, 2020).

Test [1] relates to P. aeruginosa PA01 (H103). Type of test: cell-based, Pseudomonas aeruginosa. Particulars: H103, 18 h. The method, then:
(§1) Bacterial growth inhibition was determined by using broth microdilution according to the Clinical Laboratory Standards Institute[43]. The antibacterial activity of peptoids was tested against S. aureus ATCC 25923, ATCC29213, and methicillin resistant S. aureus USA 300, methicillin resistant S. epidermidis ATCC 51625, a biofilm producing methicillin resistant S. epidermidis ET-024[44], P. aeruginosa Pa01 (H103), and E. coli ATCC 25922. Bacteria, grown on agar plates for 18 h at 37 °C, were diluted to ∼1 × 10^8 CFU/mL in Mueller‐Hinton Broth II (MHB II). Twofold serial dilutions of peptoids in MHB II were inoculated with bacteria to achieve a final concentration of 5 × 10^5 CFU/mL in polypropylene 96 U‐well microtiter plates (Corning 3,897; ThermoFisher Scientific, Roskilde), followed by incubation at 37 °C in ambient air for 18 h. The MIC values were determined as the lowest concentration showing no visible bacterial growth. Experiments were performed twice (in technical triplicates) on 2 different days.

The subject of test [2] is Methicillin-resistant S. epidermidis ET-024. Type of test: cell-based, Staphylococcus epidermidis. Particulars: Methicillin-resistant ET-024, 18 h. The method, then: as §1
The subject of test [3] is Methicillin-resistant S. epidermidis ATCC 51625. Format: cell-based, Staphylococcus epidermidis. The conditions noted are these: ATCC 51625, 18 h. As for the experimental part:
as §1

A further test relates to S. aureus ATCC 29213. Type of test: cell-based, Staphylococcus aureus. The conditions noted are these: ATCC 29213, 18 h. As for the experimental part:
as §1

A further test has as its system S. aureus ATCC 25923. Type of test: cell-based, Staphylococcus aureus. Particulars: ATCC 25923, 18 h. As for the experimental part: as §1
For test [4], the system named is Methicillin-resistant S. aureus USA 300. Type of test: cell-based, Staphylococcus aureus. The conditions noted are these: USA 300, 18 h. As for the experimental part:
as §1

The subject of the next test is E. coli ATCC 25922. Type of test: cell-based, Escherichia coli. Particulars: ATCC 25922, 18 h. As for the experimental part: as §1

With `NCCCCNCC(=O)N(CC(=O)N(CCCCN)CC(=O)N(CC(=O)N(CCCCN)CC(=O)N(CC(=O)N(CCCCN)CC(=O)N(CC(=O)N(CCCCN)CC(=O)N(CC(=O)N(CCCCN)CC(=O)N(CC(N)=O)Cc1ccc(Cl)cc1)Cc1ccc(Cl)cc1)Cc1ccc(Cl)cc1)Cc1ccc(Cl)cc1)Cc1ccc(Cl)cc1)Cc1ccc(Cl)cc1` [Compound 30] (H-[Nlys][Gly(Nα-4-Cl-benzyl)][Nlys][Gly(Nα-4-Cl-benzyl)][Nlys][Gly(Nα-4-Cl-benzyl)][Nlys][Gly(Nα-4-Cl-benzyl)][Nlys][Gly(Nα-4-Cl-benzyl)][Nlys][Gly(Nα-4-Cl-benzyl)]-NH2), the “Minimal inhibitory concentration PA^g” value in test [1] was > 512 µg/mL. Besides, in test [2], the “Minimal inhibitory concentration MRSE^d” value was determined as 2 µg/mL (≈ 1.07 µM). Also, in test [3], the “Minimal inhibitory concentration MRSE^e” value stood at 1 µg/mL (≈ 0.533 µM). The “Minimal inhibitory concentration SA^b” value in the test with S. aureus ATCC 29213 amounted to 2 µg/mL (≈ 1.07 µM). In the test on S. aureus ATCC 25923, the “Minimal inhibitory concentration SA^a” value was 2 µg/mL (≈ 1.07 µM). Besides, the “Minimal inhibitory concentration MRSA^c” value in test [4] worked out at 2 µg/mL (≈ 1.07 µM). In the test with E. coli ATCC 25922, the “Minimal inhibitory concentration EC^f” value came out at 64 µg/mL (≈ 34.1 µM).
With `NCCCCNCC(=O)N(CC(=O)N(CCCCN)CC(=O)N(CC(=O)N(CCCCN)CC(=O)N(CC(=O)N(CCCCN)CC(=O)N(CC(=O)N(CCCCN)CC(=O)N(CC(=O)N(CCCCN)CC(=O)N(CC(N)=O)Cc1ccc(Br)cc1)Cc1ccc(Br)cc1)Cc1ccc(Br)cc1)Cc1ccc(Br)cc1)Cc1ccc(Br)cc1)Cc1ccc(Br)cc1` [Compound 31] (H-[Nlys][N(4-Br-benzyl)Gly][Nlys][N(4-Br-benzyl)Gly][Nlys][N(4-Br-benzyl)Gly][Nlys][N(4-Br-benzyl)Gly][Nlys][N(4-Br-benzyl)Gly][Nlys][N(4-Br-benzyl)Gly]-NH2), the “Minimal inhibitory concentration PA^g” value in test [1] was 256 µg/mL (≈ 119 µM). Also, the “Minimal inhibitory concentration MRSE^d” value in test [2] was 4 µg/mL (≈ 1.87 µM). Also, the “Minimal inhibitory concentration MRSE^e” value in test [3] was 4 µg/mL (≈ 1.87 µM). Also, in the test with S. aureus ATCC 29213, the “Minimal inhibitory concentration SA^b” value is 8 µg/mL (≈ 3.73 µM). For the same compound, the “Minimal inhibitory concentration SA^a” value in the test with S. aureus ATCC 25923 was found to be 4 µg/mL (≈ 1.87 µM). In addition, the “Minimal inhibitory concentration MRSA^c” value in test [4] was found to be 2 µg/mL (≈ 0.933 µM). Further, in the test with E. coli ATCC 25922, the “Minimal inhibitory concentration EC^f” value was 64 µg/mL (≈ 29.9 µM).
With `NCCCCNCC(=O)N(CC(=O)N(CCCCN)CC(=O)N(CC(=O)N(CCCCN)CC(=O)N(CC(=O)N(CCCCN)CC(=O)N(CC(=O)N(CCCCN)CC(=O)N(CC(=O)N(CCCCN)CC(=O)N(CC(N)=O)Cc1ccc(F)cc1)Cc1ccccc1)Cc1ccc(F)cc1)Cc1ccccc1)Cc1ccc(F)cc1)Cc1ccccc1` [Compound 33] (H-[Nlys][Nphe][Nlys][N(4-F-Bzl)Gly][Nlys][Nphe][Nlys][N(4-F-Bzl)Gly][Nlys][Nphe][Nlys][N(4-F-Bzl)Gly]-NH2), the “Minimal inhibitory concentration PA^g” value in test [1] came to 256 µg/mL (≈ 149 µM). Besides, the “Minimal inhibitory concentration MRSE^d” value in test [2] amounted to 16 µg/mL (≈ 9.29 µM). For the same compound, in test [3], the “Minimal inhibitory concentration MRSE^e” value came out at 4 µg/mL (≈ 2.32 µM). Further, the “Minimal inhibitory concentration SA^b” value in the test on S. aureus ATCC 29213 stood at 256 µg/mL (≈ 149 µM). In addition, in the test with S. aureus ATCC 25923, the “Minimal inhibitory concentration SA^a” value was 256 µg/mL (≈ 149 µM). The “Minimal inhibitory concentration MRSA^c” value in test [4] was 128 µg/mL (≈ 74.3 µM). For the same compound, the “Minimal inhibitory concentration EC^f” value in the test with E. coli ATCC 25922 was 256 µg/mL (≈ 149 µM).
`NCCCCNCC(=O)N(CC(=O)N(CCCCN)CC(=O)N(CC(=O)N(CCCCN)CC(=O)N(CC(=O)N(CCCCN)CC(=O)N(CC(=O)N(CCCCN)CC(=O)N(CC(=O)N(CCCCN)CC(=O)N(CC(N)=O)Cc1ccc(Cl)cc1)Cc1ccccc1)Cc1ccc(Cl)cc1)Cc1ccccc1)Cc1ccc(Cl)cc1)Cc1ccccc1` [Compound 34] (H-[Nlys][Nphe][Nlys][Gly(Nα-4-Cl-benzyl)][Nlys][Nphe][Nlys][Gly(Nα-4-Cl-benzyl)][Nlys][Nphe][Nlys][Gly(Nα-4-Cl-benzyl)]-NH2): the “Minimal inhibitory concentration PA^g” value in test [1] was > 512 µg/mL. Besides, the “Minimal inhibitory concentration MRSE^d” value in test [2] was found to be 4 µg/mL (≈ 2.26 µM). The “Minimal inhibitory concentration MRSE^e” value in test [3] is 1 µg/mL (≈ 0.564 µM). In addition, in the test with S. aureus ATCC 29213, the “Minimal inhibitory concentration SA^b” value was found to be 8 µg/mL (≈ 4.51 µM). Moreover, the “Minimal inhibitory concentration SA^a” value in the test with S. aureus ATCC 25923 worked out at 16 µg/mL (≈ 9.03 µM). In test [4], the “Minimal inhibitory concentration MRSA^c” value turned out to be 8 µg/mL (≈ 4.51 µM). Moreover, in the test with E. coli ATCC 25922, the “Minimal inhibitory concentration EC^f” value came out at 256 µg/mL (≈ 144 µM).
